One assay deals with Human Cot (Homo sapiens (Human), UniProt P41279). The assay can be described thus: High Throughput Cot Biochemical Assay. The note with it: Cot HTRF (TR-FRET) biochemical assay.
A further assay concerns TNFα. The assay can be described thus: Cot Monocyte TNFα Cell Based Assay.
The mark [1] stands for this setting: Homo sapiens, Monocyte, read-out: EC50 TNF, LPS-stimulated human monocytes, TNFα.
The mark [2] stands for this setting: read-out: EC50 TNF, LPS-stimulated human monocytes, TNFα.

Where two headings read alike, the source gives them in different places.

Human Cot, sequence (P41279 30-397): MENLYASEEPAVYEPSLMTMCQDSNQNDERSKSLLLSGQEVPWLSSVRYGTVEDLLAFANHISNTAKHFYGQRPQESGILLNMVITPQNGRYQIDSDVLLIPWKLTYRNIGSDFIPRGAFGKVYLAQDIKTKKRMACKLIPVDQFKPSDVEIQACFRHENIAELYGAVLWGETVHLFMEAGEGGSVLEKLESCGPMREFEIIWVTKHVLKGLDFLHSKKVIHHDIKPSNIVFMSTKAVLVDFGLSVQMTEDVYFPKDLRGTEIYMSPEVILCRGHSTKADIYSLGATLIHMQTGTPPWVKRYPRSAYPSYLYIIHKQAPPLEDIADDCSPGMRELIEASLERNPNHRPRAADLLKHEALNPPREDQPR

The compound `CC[C@@H](Nc1c(C#N)cnc2c(Cl)cc(N[C@@H](c3cccnc3)c3cn(C(C)C)nn3)cc12)c1ccccc1` [Example 193, 8-chloro-6-(((S)-(1-isopropyl-1H-1,2,3-triazol-4-yl)(pyridin-3-yl)methyl)amino)-4-(((R)-1-phenylpropyl)amino)quinoline-3-carbonitrile] registered a concentration for half-maximal inhibition (IC50) on Human Cot (IC50 HTRF) of 0.002 µM. Further, in the assay on TNFα (setting [1]), the concentration giving a half-maximal response (EC50) was 0.107 µM.
Compound `CC[C@@H](Nc1c(C#N)cnc2c(Cl)cc(N[C@@H](c3cccnc3)c3cn(CC(F)(F)F)nn3)cc12)c1ccccc1` [Example 195, 8-chloro-4-(((R)-1-phenylpropyl)amino)-6-(((S)-pyridin-3-yl(1-(2,2,2-trifluoroethyl)-1H-1,2,3-triazol-4-yl)methyl)amino)quinoline-3-carbonitrile] registered an IC50 against Human Cot (IC50 HTRF) of 0.004 µM. Further, the EC50 with TNFα (setting [1]) worked out at 0.132 µM.
As to `N#Cc1cnc2c(Cl)cc(N[C@@H](c3cccnc3)c3cn(C4COC4)nn3)cc2c1Nc1cccc(Cl)c1` [Example 196, (S)-8-chloro-4-((3-chlorophenyl)amino)-6-(((1-(oxetan-3-yl)-1H-1,2,3-triazol-4-yl)(pyridin-3-yl)methyl)amino)quinoline-3-carbonitrile], the IC50 against Human Cot (IC50 HTRF) amounted to 0.006 µM. For the same compound, in the assay with TNFα (setting [1]), the EC50 stood at 0.668 µM.
Take `C[C@@H](CF)n1cc([C@@H](Nc2cc(Cl)c3ncc(C#N)c(Nc4cnc(F)c(F)c4)c3c2)c2cccnc2)nn1` [Example 197, 8-chloro-4-((5,6-difluoropyridin-3-yl)amino)-6-(((S)-(1-((S)-1-fluoropropan-2-yl)-1H-1,2,3-triazol-4-yl)(pyridin-3-yl)methyl)amino)quinoline-3-carbonitrile]: it took 0.009 µM to reach half-maximal inhibition against Human Cot (IC50 HTRF) (IC50). Besides, the 50% effective concentration (EC50) with TNFα (setting [1]) was 0.599 µM.
Regarding `CC(C)(C)n1cc([C@@H](Nc2cc(Cl)c3ncc(C#N)c(Nc4cnc(F)c(F)c4)c3c2)c2cccnc2)nn1` [Example 198, (S)-6-(((1-(tert-butyl)-1H-1,2,3-triazol-4-yl)(pyridin-3-yl)methyl)amino)-8-chloro-4-((5,6-difluoropyridin-3-yl)amino)quinoline-3-carbonitrile], the concentration for half-maximal inhibition (IC50) against Human Cot (IC50 HTRF) worked out at 0.017 µM. For the same compound, the concentration for a half-maximal effect (EC50) in the assay with TNFα (setting [1]) amounted to 0.982 µM.
At Human Cot (IC50 HTRF), `N#Cc1cnc2c(Cl)cc(N[C@@H](c3cccnc3)c3cn(C4COC4)nn3)cc2c1Nc1cnc(F)c(F)c1` [Example 199, (S)-8-chloro-4-((5,6-difluoropyridin-3-yl)amino)-6-(((1-(oxetan-3-yl)-1H-1,2,3-triazol-4-yl)(pyridin-3-yl)methyl)amino)quinoline-3-carbonitrile] yielded an IC50 of 0.009 µM. Further, in the assay with TNFα (setting [1]), the EC50 is 2.52 µM.
Take `N#Cc1cnc2c(Cl)cc(N[C@@H](c3cccnc3)c3cn(CCCN4CCCC4)nn3)cc2c1Nc1cnc(F)c(F)c1` [Example 200, (S)-8-chloro-4-((5,6-difluoropyridin-3-yl)amino)-6-((pyridin-3-yl(1-(3-(pyrrolidin-1-yl)propyl)-1H-1,2,3-triazol-4-yl)methyl)amino)quinoline-3-carbonitrile]: on Human Cot (IC50 HTRF), the half-inhibitory concentration (IC50) worked out at 0.007 µM. In addition, the 50% effective concentration (EC50) in the assay on TNFα (setting [1]) was determined as 0.558 µM.
`N#Cc1cnc2c(Cl)cc(N[C@@H](c3cccnc3)c3cn(C4COC4)nn3)cc2c1NC1CCOCC1` [Example 201, (S)-8-chloro-6-(((1-(oxetan-3-yl)-1H-1,2,3-triazol-4-yl)(pyridin-3-yl)methyl)amino)-4-((tetrahydro-2H-pyran-4-yl)amino)quinoline-3-carbonitrile]: at Human Cot (IC50 HTRF), the half-maximal inhibitory concentration (IC50) worked out at 0.056 µM. For the same compound, the EC50 in the assay with TNFα (setting [1]) came to 5.59 µM.
For `CC(C)n1cc([C@@H](Nc2cc(Cl)c3ncc(C#N)c(N[C@H](c4ccccc4)C(C)(C)O)c3c2)c2cccnc2)nn1` [Example 202, 8-chloro-4-(((R)-2-hydroxy-2-methyl-1-phenylpropyl)amino)-6-(((S)-(1-isopropyl-1H-1,2,3-triazol-4-yl)(pyridin-3-yl)methyl)amino)quinoline-3-carbonitrile], the IC50 on Human Cot (IC50 HTRF) was over 10 µM. Besides, in the assay on TNFα (setting [1]), the EC50 is over 10 µM.
`COC[C@H](Nc1c(C#N)cnc2c(Cl)cc(N[C@@H](c3cccnc3)c3c[nH]nn3)cc12)c1ccccc1` [Example 203, 8-chloro-4-(((R)-2-methoxy-1-phenylethyl)amino)-6-(((S)-pyridin-3-yl(1H-1,2,3-triazol-4-yl)methyl)amino)quinoline-3-carbonitrile] yielded an IC50 at Human Cot (IC50 HTRF) of 6.92 µM. Moreover, the half-maximal effective concentration (EC50) in the assay on TNFα (setting [1]) worked out at 9.09 µM.
Regarding `COC[C@H](Nc1c(C#N)cnc2c(Cl)cc(N[C@@H](c3cccnc3)c3cn(C(C)C)nn3)cc12)c1ccccc1` [Example 204, 8-chloro-6-(((S)-(1-isopropyl-1H-1,2,3-triazol-4-yl)(pyridin-3-yl)methyl)amino)-4-(((R)-2-methoxy-1-phenylethyl)amino)quinoline-3-carbonitrile], the midpoint of inhibition on Human Cot (IC50 HTRF), the IC50, lay at 8.51 µM. For the same compound, in the assay with TNFα (setting [1]), the half-maximal effective concentration (EC50) is over 10 µM.
Consider `C[C@@H](n1cc([C@@H](Nc2cc(Cl)c3ncc(C#N)c(Nc4cnc(F)c(F)c4)c3c2)c2cccnc2)nn1)C(F)(F)F` [Example 205, 8-chloro-4-((5,6-difluoropyridin-3-yl)amino)-6-(((S)-pyridin-3-yl(1-((R)-1,1,1-trifluoropropan-2-yl)-1H-1,2,3-triazol-4-yl)methyl)amino)quinoline-3-carbonitrile], for which, at Human Cot (IC50 HTRF), half-maximal inhibition (IC50) required 0.072 µM. Further, the EC50 in the assay on TNFα (setting [1]) was found to be 2.05 µM.
For `N#Cc1cnc2c(Cl)cc(N[C@@H](c3cccnc3)c3c[nH]nn3)cc2c1Nc1cnc(F)c(F)c1` [Example 207, (S)-8-chloro-4-((5,6-difluoropyridin-3-yl)amino)-6-((pyridin-3-yl(1H-1,2,3-triazol-4-yl)methyl)amino)quinoline-3-carbonitrile] the same measures were 0.005 µM and 0.931 µM.
The like results for `N#Cc1cnc2c(Cl)cc(N[C@@H](C3=CCOCC3)c3cn(C4COC4)nn3)cc2c1Nc1ccc(Cl)c(Cl)c1F` [Example 210, (S)-8-chloro-4-((3,4-dichloro-2-fluorophenyl)amino)-6-(((3,6-dihydro-2H-pyran-4-yl)(1-(oxetan-3-yl)-1H-1,2,3-triazol-4-yl)methyl)amino)quinoline-3-carbonitrile] were, in that order, 0.01 µM and 0.424 µM.
`N#Cc1cnc2c(Cl)cc(N[C@@H](C3=CCOCC3)c3c[nH]nn3)cc2c1Nc1ccc(Cl)c(Cl)c1F` [Example 211, (S)-8-chloro-4-((3,4-dichloro-2-fluorophenyl)amino)-6-(((3,6-dihydro-2H-pyran-4-yl)(1H-1,2,3-triazol-4-yl)methyl)amino)quinoline-3-carbonitrile]: the half-maximal inhibitory concentration (IC50) at Human Cot (IC50 HTRF) worked out at 0.016 µM. Further, the half-maximal effective concentration (EC50) with TNFα (setting [1]) amounted to 0.544 µM.
In turn, `CC[C@@H](Nc1c(C#N)cnc2c(Cl)cc(N[C@@H](c3cccnc3)c3cn(CC[N+](C)(CC)CC)nn3)cc12)c1ccccc1` [Example 212, 2-(4-((S)-((8-chloro-3-cyano-4-(((R)-1-phenylpropyl)amino)quinolin-6-yl)amino)(pyridin-3-yl)methyl)-1H-1,2,3-triazol-1-yl)-N,N-diethyl-N-methylethan-1-aminium] came in with an IC50 at Human Cot (IC50 HTRF) of 0.044 µM. Besides, in the assay with TNFα (setting [1]), the concentration for a half-maximal effect (EC50) came out at 9.15 µM.
`N#Cc1cnc2c(Cl)cc(N[C@@H](c3cocn3)c3c[nH]nn3)cc2c1N[C@@H](CO)c1ccccc1` [Example 214, 8-chloro-4-(((R)-2-hydroxy-1-phenylethyl)amino)-6-(((S)-o)(azol-4-yl(1H-1,2,3-triazol-4-yl)methyl)amino)quinoline-3-carbonitrile]: the IC50 at Human Cot (read-out: IC50 HTRF) was over 10 µM. In addition, the 50% effective concentration (EC50) with TNFα (setting [2]) is over 10 µM.
Consider `N#Cc1cnc2c(Cl)cc(N[C@@H](c3cocn3)c3c[nH]nn3)cc2c1N[C@H](CO)c1ccccc1` [Example 215, 8-chloro-4-(((S)-2-hydroxy-1-phenylethyl)amino)-6-(((S)-o)(azol-4-yl(1H-1,2,3-triazol-4-yl)methyl)amino)quinoline-3-carbonitrile], for which the half-inhibitory concentration (IC50) at Human Cot (read-out: IC50 HTRF) was 0.258 µM. Also, the EC50 in the assay on TNFα (setting [2]) was over 10 µM.
With `Cn1nccc1[C@H](Nc1cc(Cl)c2ncc(C#N)c(Nc3ccc(Cl)c(Cl)c3F)c2c1)c1c[nH]nn1` [Example 216, (S)-8-chloro-4-((3,4-dichloro-2-fluorophenyl)amino)-6-(((1-methyl-1H-pyrazol-5-yl)(1H-1,2,3-triazol-4-yl)methyl)amino)quinoline-3-carbonitrile], on Human Cot (IC50 HTRF), the IC50 came to 0.038 µM. Further, in the assay on TNFα (setting [1]), the EC50 was determined as 1.19 µM.
On to `Cc1ncccc1[C@H](Nc1cc(Cl)c2ncc(C#N)c(N[C@H](CO)c3ccccc3)c2c1)c1c[nH]nn1` [Example 218, 8-chloro-4-(((S)-2-hydroxy-1-phenylethyl)amino)-6-(((S)-(2-methylpyridin-3-yl)(1H-1,2,3-triazol-4-yl)methyl)amino)quinoline-3-carbonitrile], for which the 50% inhibitory concentration (IC50) against Human Cot (IC50 HTRF) was 0.026 µM. Besides, the 50% effective concentration (EC50) in the assay with TNFα (setting [1]) was found to be 2.71 µM.
Consider `Cc1ncccc1[C@H](Nc1cc(Cl)c2ncc(C#N)c(N[C@@H](CO)c3ccccc3)c2c1)c1c[nH]nn1` [Example 219, 8-chloro-4-(((R)-2-hydroxy-1-phenylethyl)amino)-6-(((S)-(2-methylpyridin-3-yl)(1H-1,2,3-triazol-4-yl)methyl)amino)quinoline-3-carbonitrile], for which the IC50 on Human Cot (IC50 HTRF) was determined as 4.45 µM. The 50% effective concentration (EC50) with TNFα (setting [1]) was over 10 µM.
Regarding `CC[C@@H](Nc1c(C#N)cnc2c(Cl)cc(N[C@H](c3c[nH]nn3)c3cccnc3C)cc12)c1ccccc1` [Example 220, 8-chloro-6-(((S)-(2-methylpyridin-3-yl)(1H-1,2,3-triazol-4-yl)methyl)amino)-4-(((R)-1-phenylpropyl)amino)quinoline-3-carbonitrile], at Human Cot (IC50 HTRF), inhibition was half-maximal at 0.004 µM (IC50). Further, the EC50 in the assay on TNFα (setting [1]) is 0.348 µM.
For `CC[C@@H](Nc1c(C#N)cnc2c(Cl)cc(N[C@H](c3cn(C4CCN(C(C)(C)C)CC4)nn3)c3cccnc3C)cc12)c1ccccc1` [Example 221, 6-(((S)-(1-(1-(tert-butyl)piperidin-4-yl)-1H-1,2,3-triazol-4-yl)(2-methylpyridin-3-yl)methyl)amino)-8-chloro-4-(((R)-1-phenylpropyl)amino)quinoline-3-carbonitrile] the same measures were 0.002 µM and 0.028 µM.

The term IC50 denotes the midpoint of a concentration-inhibition curve. By EC50 is commonly meant the midpoint of the concentration-response curve.

The record behind these values is patent US11066414B2, “Cot modulators and methods of use thereof” (Gilead Sciences, Inc., priority 2015, dated 2021).
